Results reported in BindingDB's records for patent US20250313563 (The Broad Institute, 2025).
Several values for one entry are separate records, joined by “and”; a condition that tells them apart may be missing. Identical values can stand only once.

Key:
[1] = target: Glycogen synthase kinase-3 beta (Homo sapiens, UniProt P49841); assay: TR-FRET Assay
Procedure, shortened: (§1)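 30 min preinc w/ cpd in assay buffer → kinase rxn → EDTA quench → add detection mix (40 nM SA-d2, 2 nM Tb-pSer641 Ab) → TR-FRET read.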

[2] = target: Glycogen synthase kinase-3 alpha (Homo sapiens, UniProt P49840); assay: TR-FRET Assay
Chain of Glycogen synthase kinase-3 alpha (P49840 whole entry): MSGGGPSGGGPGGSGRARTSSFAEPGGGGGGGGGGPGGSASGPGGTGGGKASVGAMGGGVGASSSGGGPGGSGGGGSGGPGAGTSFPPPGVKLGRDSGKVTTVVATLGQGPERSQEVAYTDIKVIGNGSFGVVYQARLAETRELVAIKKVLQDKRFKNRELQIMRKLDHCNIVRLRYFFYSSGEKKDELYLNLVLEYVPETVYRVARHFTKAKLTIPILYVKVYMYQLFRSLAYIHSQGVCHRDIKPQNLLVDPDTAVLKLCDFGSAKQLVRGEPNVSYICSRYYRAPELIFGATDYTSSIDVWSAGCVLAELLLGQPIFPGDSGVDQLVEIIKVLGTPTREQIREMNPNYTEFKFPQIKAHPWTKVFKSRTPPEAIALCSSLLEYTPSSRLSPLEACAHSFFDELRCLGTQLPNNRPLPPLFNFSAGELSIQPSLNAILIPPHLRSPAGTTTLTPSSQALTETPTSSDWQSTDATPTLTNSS
Procedure, shortened: as §1

Chain of Glycogen synthase kinase-3 beta (P49841 whole entry): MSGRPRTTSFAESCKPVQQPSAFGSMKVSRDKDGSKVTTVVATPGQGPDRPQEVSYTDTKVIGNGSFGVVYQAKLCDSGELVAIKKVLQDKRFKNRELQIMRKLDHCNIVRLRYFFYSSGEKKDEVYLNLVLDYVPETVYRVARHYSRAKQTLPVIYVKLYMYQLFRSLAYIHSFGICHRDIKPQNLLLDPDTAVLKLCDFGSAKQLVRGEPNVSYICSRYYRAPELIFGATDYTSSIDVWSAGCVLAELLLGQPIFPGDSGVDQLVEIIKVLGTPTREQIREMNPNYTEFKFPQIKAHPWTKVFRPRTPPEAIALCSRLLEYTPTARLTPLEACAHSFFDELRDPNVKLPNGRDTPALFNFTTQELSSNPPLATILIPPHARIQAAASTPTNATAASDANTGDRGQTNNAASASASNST

## CC[C@]1(c2cccc(-c3ccnc(C)c3)c2)C2=CN=NC2NC2=C1C(=O)[C@@H]1CC[C@H]2C1 (some centres not stated) [US20250313563, Compound 943921]
[1]
  IC50: > 5000 nM
[2]
  IC50: 1000 to 5000 nM

## CC1(C)CC(=O)C2=C(C1)NC1=C(CN=N1)[C@@]21COC2(CN(C(=O)c3ccccc3)C2)C1 [US20250313563, Compound 943955]
[1]
  IC50: < 100 nM
[2]
  IC50: < 100 nM

## CC1(C)CC(=O)C2=C(C1)NC1=C(CN=N1)[C@]21COC2(CN(C(=O)c3ccccc3)C2)C1 [US20250313563, Compound 943956]
[1]
  IC50: 1000 to 5000 nM
[2]
  IC50: 100 to 1000 nM

## CC1(C)CC(=O)C2=C(C1)NC1=C(CN=N1)[C@@]21COC2(CN(C(=O)C3CCCC3)C2)C1 [US20250313563, Compound 943957]
[1]
  IC50: < 100 nM
[2]
  IC50: < 100 nM

## CC1(C)CC(=O)C2=C(C1)NC1=C(CN=N1)[C@]21COC2(CN(C(=O)C3CCCC3)C2)C1 [US20250313563, Compound 943958]
[1]
  IC50: 1000 to 5000 nM
[2]
  IC50: 100 to 1000 nM

## CC1(C)CC2=C(C(=O)N1)C1(CCN(S(C)(=O)=O)CC1)C1=C(N=NC1)N2 [US20250313563, Compound 943959]
[1]
  IC50: 100 to 1000 nM
[2]
  IC50: < 100 nM

## CC1(C)CC2=C(C(=O)N1)C1(CCN(S(=O)(=O)C3CCCC3)CC1)C1=C(N=NC1)N2 [US20250313563, Compound 943960]
[1]
  IC50: < 100 nM and 100 to 1000 nM
[2]
  IC50: < 100 nM and 100 to 1000 nM

## CC1(C)CC2=C(C(=O)N1)C1(CCN(S(=O)(=O)c3ccc(F)cc3)CC1)C1=C(N=NC1)N2 [US20250313563, Compound 943963]
[1]
  IC50: < 100 nM
[2]
  IC50: < 100 nM

## CC[C@]1(c2cccc(N(C)c3ncccn3)c2)C2=CN=NC2NC2=C1C(=O)NC(C)(C)C2 (some centres not stated) [US20250313563, Compound 943964]
[1]
  IC50: < 100 nM and 1000 to 5000 nM
[2]
  IC50: < 100 nM and 100 to 1000 nM

## CC[C@@]1(c2cccc(N(C)c3ncccn3)c2)C2=CN=NC2NC2=C1C(=O)NC(C)(C)C2 (some centres not stated) [US20250313563, Compound 943965]
[1]
  IC50: > 5000 nM
[2]
  IC50: 100 to 1000 nM

## CC[C@@]1(c2cccc(-c3cc(C)nn3C)c2)C2=CN=NC2NC2=C1C(=O)NC(C)(C)C2 (some centres not stated) [US20250313563, Compound 943967]
[1]
  IC50: > 5000 nM
[2]
  IC50: > 5000 nM

## CC[C@]1(c2cccc(-c3ccnc(OC(F)(F)F)c3)c2)C2=CN=NC2NC2=C1C(=O)CC(C)(C)C2 (some centres not stated) [US20250313563, Compound 943988]
[1]
  IC50: 1000 to 5000 nM
[2]
  IC50: 100 to 1000 nM

## CC[C@@]1(c2cccc(-c3ccnc(C(F)(F)F)c3)c2)C2=CN=NC2NC2=C1C(=O)CC(C)(C)C2 (some centres not stated) [US20250313563, Compound 943989]
[1]
  IC50: > 5000 nM
[2]
  IC50: > 5000 nM

## CC[C@@]1(c2cccc(-c3ccncc3C)c2)C2=CN=NC2NC2=C1C(=O)CC(C)(C)C2 (some centres not stated) [US20250313563, Compound 943991]
[1]
  IC50: 1000 to 5000 nM
[2]
  IC50: 100 to 1000 nM

## CC[C@@]1(c2cccc(-c3ccnc(O)c3)c2)C2=CN=NC2NC2=C1C(=O)CC(C)(C)C2 (some centres not stated) [US20250313563, Compound 943993]
[1]
  IC50: > 5000 nM
[2]
  IC50: > 5000 nM

## CC[C@@]1(c2cccc(-c3cnnc(C)c3)c2)C2=CN=NC2NC2=C1C(=O)CC(C)(C)C2 (some centres not stated) [US20250313563, Compound 943994]
[1]
  IC50: 1000 to 5000 nM
[2]
  IC50: 100 to 1000 nM

## CC[C@@]1(c2cccc(-c3cnnc(C)c3)c2)C2=CN=NC2NC2=C1C(=O)CC(C)(C)C2 (some centres not stated) [US20250313563, Compound 943995]
[1]
  IC50: > 5000 nM
[2]
  IC50: 100 to 1000 nM

## CCC1(c2cccc(-c3c(C)nnn3C)c2)C2=CN=NC2NC2=C1C(=O)CC(C)(C)C2 (configuration not stated) [US20250313563, Compound 943996]
[1]
  IC50: < 100 nM and 100 to 1000 nM
[2]
  IC50: < 100 nM

## CCC1(c2cccc(S(=O)(=O)C3COC3)c2)C2=CN=NC2NC2=C1C(=O)CC(C)(C)C2 (configuration not stated) [US20250313563, Compound 944017]
[1]
  IC50: < 100 nM
[2]
  IC50: < 100 nM

## CCC1(c2cccc(S(=O)(=O)C3CCOC3)c2)C2=CN=NC2NC2=C1C(=O)CC(C)(C)C2 (configuration not stated) [US20250313563, Compound 944018]
[1]
  IC50: < 100 nM
[2]
  IC50: < 100 nM

## CCC1(c2cccc(S(=O)(=O)C3CC(F)(F)C3)c2)C2=CN=NC2NC2=C1C(=O)CC(C)(C)C2 (configuration not stated) [US20250313563, Compound 944019]
[1]
  IC50: < 100 nM
[2]
  IC50: < 100 nM

## CCC1(c2cccc(S(C)(=O)=O)c2)C2=CN=NC2NC2=C1C(=O)NC(C)(C)C2 (configuration not stated) [US20250313563, Compound 944020]
[1]
  IC50: < 100 nM
[2]
  IC50: < 100 nM

## CCC1(c2cccc(-c3cnn(C)c3C)c2)C2=CN=NC2NC2=C1C(=O)NC(C)(C)C2 (configuration not stated) [US20250313563, Compound 944021]
[1]
  IC50: 100 to 1000 nM
[2]
  IC50: < 100 nM

## CCC1(c2cccc(C3=CN=NC3)c2)C2=CN=NC2NC2=C1C(=O)NC(C)(C)C2 (configuration not stated) [US20250313563, Compound 944022]
[1]
  IC50: 100 to 1000 nM
[2]
  IC50: < 100 nM

## CCc1cccc(N(C)c2cccc(C3(CC)C4=CN=NC4NC4=C3C(=O)CC(C)(C)C4)c2)n1 (configuration not stated) [US20250313563, Compound 944023]
[1]
  IC50: 100 to 1000 nM
[2]
  IC50: < 100 nM

## CCC1(c2cccc(-c3ccncc3O)c2)C2=C(CC(C)(C)CC2=O)NC2N=NC(C)=C21 (configuration not stated) [US20250313563, Compound 944024]
[1]
  IC50: < 100 nM
[2]
  IC50: < 100 nM

## CCC1(c2cccc(-c3cnco3)c2)C2=CN=NC2NC2=C1C(=O)CC(C)(C)C2 (configuration not stated) [US20250313563, Compound 944025]
[1]
  IC50: 100 to 1000 nM
[2]
  IC50: < 100 nM

## CCC1(c2cccc(-c3cncn3C(C)C)c2)C2=CN=NC2NC2=C1C(=O)CC(C)(C)C2 (configuration not stated) [US20250313563, Compound 944026]
[1]
  IC50: < 100 nM
[2]
  IC50: < 100 nM

## CCC1(c2cccc(-c3cnn(C)c3)c2)C2=C(CC(C)(C)NC2=O)NC2N=NC(C)=C21 (configuration not stated) [US20250313563, Compound 944027]
[1]
  IC50: 100 to 1000 nM
[2]
  IC50: < 100 nM

## CCC1(c2cccc(-c3cnn(C)c3C)c2)C2=C(CC(C)(C)NC2=O)NC2N=NC(C)=C21 (configuration not stated) [US20250313563, Compound 944028]
[1]
  IC50: 100 to 1000 nM
[2]
  IC50: < 100 nM

## CCC1(c2cccc(-c3ccnc(C(C)O)c3)c2)C2=CN=NC2NC2=C1C(=O)CC(C)(C)C2 (configuration not stated) [US20250313563, Compound 944029]
[1]
  IC50: 100 to 1000 nM
[2]
  IC50: < 100 nM

## CCC1(c2cccc(-c3cn(C)nc3C)c2)C2=CN=NC2NC2=C1C(=O)NC(C)(C)C2 (configuration not stated) [US20250313563, Compound 944030]
[1]
  IC50: < 100 nM
[2]
  IC50: < 100 nM

## CC[C@@]1(c2cccc(-c3ccnc4ccccc34)c2)C2=CN=NC2NC2=C1C(=O)CC(C)(C)C2 (some centres not stated) [US20250313563, Compound 944031]
[1]
  IC50: < 100 nM
[2]
  IC50: < 100 nM

## CC[C@@]1(c2cccc(-c3cc(OC)ncc3F)c2)C2=CN=NC2NC2=C1C(=O)CC(C)(C)C2 (some centres not stated) [US20250313563, Compound 944032]
[1]
  IC50: 1000 to 5000 nM
[2]
  IC50: 100 to 1000 nM

## CC[C@]1(c2cccc(-c3ccnc4ccccc34)c2)C2=CN=NC2NC2=C1C(=O)CC(C)(C)C2 (some centres not stated) [US20250313563, Compound 944034]
[1]
  IC50: > 5000 nM
[2]
  IC50: > 5000 nM

## CC[C@]1(c2cccc(-c3cc(OC)ncc3F)c2)C2=CN=NC2NC2=C1C(=O)CC(C)(C)C2 (some centres not stated) [US20250313563, Compound 944035]
[1]
  IC50: > 5000 nM
[2]
  IC50: 1000 to 5000 nM

## CC[C@]1(c2cccc(-c3ccnc4c3CCCC4)c2)C2=CN=NC2NC2=C1C(=O)CC(C)(C)C2 (some centres not stated) [US20250313563, Compound 944036]
[1]
  IC50: > 5000 nM
[2]
  IC50: 1000 to 5000 nM

## CC[C@]1(c2cccc(-c3cnnc(C)c3)c2)C2=CN=NC2NC2=C1C(=O)NC(C)(C)C2 (some centres not stated) [US20250313563, Compound 944071]
[1]
  IC50: > 5000 nM
[2]
  IC50: 1000 to 5000 nM

## CC[C@@]1(c2cccc(-c3cnnc(C)c3)c2)C2=CN=NC2NC2=C1C(=O)NC(C)(C)C2 (some centres not stated) [US20250313563, Compound 944074]
[1]
  IC50: 100 to 1000 nM and > 5000 nM
[2]
  IC50: < 100 nM and 100 to 1000 nM

## CC[C@@]1(c2cccc(N(C)c3nccc(C)n3)c2)C2=CN=NC2NC2=C1C(=O)CC(C)(C)C2 (some centres not stated) [US20250313563, Compound 945329]
[1]
  IC50: 1000 to 5000 nM
[2]
  IC50: 100 to 1000 nM

## CC[C@]1(c2cccc(C(F)(F)F)c2)C2=CN=NC2NC2=C1C(=O)N[C@H](c1ccccc1)C2 (some centres not stated) [US20250313563, Compound 945361]
[1]
  IC50: 100 to 1000 nM
[2]
  IC50: < 100 nM

## CC[C@]1(c2cccc(C(F)(F)F)c2)C2=CN=NC2NC2=C1C(=O)N[C@@H](c1ccccc1)C2 (some centres not stated) [US20250313563, Compound 945362]
[1]
  IC50: > 5000 nM
[2]
  IC50: 1000 to 5000 nM

## CC[C@@]1(c2cccc(C(F)(F)F)c2)C2=CN=NC2NC2=C1C(=O)N[C@@H](c1ccccc1)C2 (some centres not stated) [US20250313563, Compound 945364]
[1]
  IC50: > 5000 nM
[2]
  IC50: > 5000 nM

## CC[C@]1(c2cccc(C(F)(F)F)c2)C2=C(N=NC2)NC2=C1C(=O)N(C)C2 [US20250313563, Compound 945367]
[1]
  IC50: 1000 to 5000 nM
[2]
  IC50: 100 to 1000 nM

## CC[C@@]1(c2cccc(C(F)(F)F)c2)C2=C(N=NC2)NC2=C1C(=O)N(C)C2 [US20250313563, Compound 945368]
[1]
  IC50: > 5000 nM
[2]
  IC50: > 5000 nM

## CC[C@]1(c2cccc(C(F)(F)F)c2)C2=C(N=NC2)NC2=C1C(=O)N(c1ccccc1)C2 [US20250313563, Compound 945376]
[1]
  IC50: > 5000 nM
[2]
  IC50: > 5000 nM
